“Also recorded” adds a separate entry of the source. Where two headings read alike, the source gives them in different places.
Assays:
[1] = tested on: TCC-SUP human bladder cancer xenografts; assay: Xenograft mouse model, subcutaneous TCC-SUP in nu/nu mice; assay type: in vivo
Description: FIGS. 9A-B. TP receptor antagonist inhibits bladder cancer tumor growth. (FIG. 9A) Anti-tumor effects of GR32191 and cisplatin treatment in immunocompromised mice. Subcutaneous TCC-SUP human bladder cancer xenografts in nude mice were treated with vehicle control (12 mice), GR32191 (15 mice), 5 mg/kg cisplatin (cisplatin high) (12 mice), 5 mg/kg cisplatin in combination with GR32191 (13 mice), or 0.5 mg/kg (single low dose cisplatin) alone (10 mice) or 0.5 mg/kg cisplatin in combination with GR32191 (10 mice). Tumor size was measured over time. Kaplan-Meier curves showing time to tumor onset across the treatment groups. (FIG. 9B) Pathological evaluation of tumors derived from mice treated with GR32191 (n=15) and vehicle control mice (n=12). Representative images of CD31 staining, TUNEL, staining, PCNA staining, and H&E staining are shown. Graphs on the left indicate the quantitative analysis for each of these markers. Five fields from 5 independent tumors (total 25) were counted and scored blindly. Statistically significant (p<0.05) differences compared to vehicle alone were indicated (++p<0.001 or +p<0.05).
Antigen retrieval was done by heating in a microwave oven for 5 min on high power in 10 mM citrate, pH 6.0. Sections were washed and nonspecific binding was blocked with 10% horse serum in Tris-buffered saline (TBS) (50 mM Tris-HCl, 0.9% NaCl, pH 8.0) for 20 min, then incubated overnight at 4° C. with the TP isoform-specific primary antibodies at a 1:200 dilution in the blocking solution, anti-CD31 antibody (DAKO) was used at dilution 1:25. After overnight incubation at 4° C. followed by three 10-min washes in TBS. Immpress™ horse anti-rabbit secondary was incubated (Vector Laboratories, Burlingame, Calif.) for 45 min at room temperature. Slides were counterstained with hematoxylin. PCNA staining was done utilizing mouse monoclonal antibody against human PCNA (SantaCruz) at dilution 1:200. For TUNEL staining, sections were stained using the Situ Cell Death Detection Kit (Roche Applied Science).
TCC-SUP human bladder cancer cells or SV-HUC cells stably transfected with pcDNA3, TP-α or TP-β were used in a subcutaneous model in immunocompromised (nu/nu) mice. TCC-SUP cells (5×10^6 in PBS) or SV-HUC cells (5×10^7 in Matrigel™, BD Bioscience Inc.) were injected s.c. into the right and left flanks of anesthetized mice. Tumor growth was monitored in these mice twice a week. For mice injected with TCC-SUP, GR32191 or vehicle control was administered daily (20 mg/kg) by gavage with treatment initiated 24 hrs after initial injection. Two cycles of cisplatin (single high dose (5 mg/kg) or single low dose (0.5 mg/kg)) were administrated at day 4 and day 11 post tumor cell injection.
Kaplan-Meier survival curves were constructed for overall mouse survival for two groups with and without over-expressed TP-β receptor protein. ANOVA was used to analyze the in vitro drug treatments and drug combination data. Data are presented as the mean±SD. For all statistical tests, a two-sided p-value<0.05 was used to reject the null hypothesis. Kaplan-Meier curves were used to describe time to tumor onset in each mouse group, and a Cox proportional hazards model was used to estimate and test for differences across treatment groups. Hazard ratios and their 95% confidence intervals were to describe rates of tumor onset and p-values used to compare tumor onset across groups. The proportional hazards assumption was tested using Schoenfeld residuals. Differences in tumor growth were assessed by comparing the slopes of tumor growth across groups based on a linear longitudinal two-stage analysis where slopes were estimated in stage 1 and compared across mice in stage 2. Linear regression coefficients were evaluated using Wald tests. Statistical analyses were performed using R statistical software and utilized the survival library.

[2] = healthy individuals, patients with asthma or cardiovascular diseases, cited from earlier work
[3] = tested on: tumor cell; assay: Combination with paclitaxel in vitro, tumor cell death; assay type: cell-based; settings: antagonist added to paclitaxel in vitro
[4] = tested on: bladder cancer cells; assay: Migration and invasion assays; assay type: cell-based, human
Description: Cell migration experiments were carried out using 8-μm pore size migration chambers (Falcon, Becton Dickinson) precoated at 4° C. overnight with fibronectin (Becton Dickinson) at a concentration of 5 μg per square centimeter in PBS. The following day, the fibronectin solution was aspirated and the migration chambers were rinsed one time with water and allowed to air dry prior to the migration experiment. Cell invasion experiments were carried out using re-hydrated 8-μm pore size invasion chambers precoated with Matrigel (Becton Dickinson). Cells at 80% confluence were trypsinized, harvested, and counted. For each condition, cells were seeded at 25,000 cells/well (T24) or 100,000 cells/well (SV-HUC) in 500 μl serum free media, then added to each migration and invasion chamber. Medium (750 μl) containing 10% serum was used as a chemoattractant in the lower chamber. Both upper and lower chambers contained the indicated compound. Cells were allowed to migrate for eight hours or invade for 24 hours at 37° C. in the presence of 5% CO2. […] Migrating and invading cells in 10 high power fields in each chamber were counted and the mean cell number was calculated. Each experiment was conducted in triplicate and repeated three times.

[5] = tested on: T24 cells; assay: Sensitivity of T24 cells to cisplatin with TP receptor antagonists; assay type: cell-based, human
Description: SV-HUC and T24 cells were seeded at 5,000 cells per well in 96-well plates, and then treated with either compound or vehicle (ethanol) alone. The number of viable cells were quantified at the indicated time points, using the MTT (3-(4,5-Dimethyl-2-thiazolyl)-2,5-diphenyl-2H-tetrazolium bromide thiazole blue) assay, performed in quadruplicate, according to the manufacturer's instructions (Sigma-Aldrich). Optical density (OD) was measured at wavelength of 550 nm with reference wavelength of 690 nm.
Cell viability was analyzed under the microscope at 200× using trypan blue staining. Flow cytometric measurements of apoptosis were as follows. After 12 hours treatment with solvent control or TP receptor antagonists, cells were washed twice in ice cold phosphate buffered saline (PBS) and resuspended in binding buffer (10 mM HEPES, 140 mM NaCl, 2.5 mM CaCl2), at 1×10^6 cells in a 400 μl volume of binding buffer, in duplicate. Cells were incubated with 10 μl of human annexin V-phycoerythrin (PE) (BD Bioscience Inc.) for 15 min at room temperature in dark. […] The TUNEL assay was performed following the protocol of the TUNEL kit's manufacturer (Roche Diagnostics).

[6] = tested on: SV-HUC cells; assay: Western blot of FAK and ERK phosphorylation in SV-HUC cells; assay type: cell-based, human; settings: SV-HUC cells (TP-α expressor), not transfected
Description: (§1) Tumor and normal bladder tissues were snap-frozen in liquid nitrogen within 30 minutes after the surgery. Frozen sections were stained with hematoxylin and eosin and samples identified that had at least 70% tumor cells were selected for further studies. Pulverized tissue powders were lysed in RIPA buffer (150 mM NaCl, 50 mM Tris-HCl [pH 8.0], 1% Triton X100, 0.1% SDS, 1% deoxycholate and protease inhibitor cocktail [Complete Protease Inhibitors, Roche]) for 15 minutes on ice. Equal amounts of total protein (40 μg) were resolved by 12% SDS-PAGE and subjected to Western blot analyses using ECL system (Amersham-Pharmacia). Screening Western blots for TP-α and TP-β isoform expression in bladder cancer cell lines was done using rabbit polyclonal antibodies against TP-α or TP-β (described above). SVHUC cells stably transfected with TP-α or TP-β plasmids were screened for PCNA, tubulin, GAPDH, FAK, pFAK, ERK, pERK protein (Santa Cruz) and ICAM-1 (Abcam).

[7] = biological target: T1, TP-β (Homo sapiens, UniProt P21731); assay: Phosphorylation of ERK and FAK in SV-HUC cells transfected with TP-β; assay type: cell-based
T1 construct: expressed in transfected cells
T1 sequence (P21731 1-407 isoform P21731-2): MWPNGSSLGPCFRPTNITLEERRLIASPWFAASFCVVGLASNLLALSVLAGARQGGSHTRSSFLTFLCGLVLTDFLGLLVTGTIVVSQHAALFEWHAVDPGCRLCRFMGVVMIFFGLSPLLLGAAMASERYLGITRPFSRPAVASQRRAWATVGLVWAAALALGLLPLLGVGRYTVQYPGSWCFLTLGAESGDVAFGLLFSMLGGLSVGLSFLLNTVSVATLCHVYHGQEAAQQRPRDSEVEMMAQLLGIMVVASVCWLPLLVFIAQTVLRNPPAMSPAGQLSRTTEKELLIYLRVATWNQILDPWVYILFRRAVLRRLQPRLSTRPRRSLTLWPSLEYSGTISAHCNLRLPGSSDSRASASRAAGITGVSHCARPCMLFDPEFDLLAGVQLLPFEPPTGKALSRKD
Description: (§2) FIG. 7. Effects of U46619 and PTXA2 on phosphorylation of ERK and FAK. SV-HUC cells transfected with pcDNA3, TP-α or TP-β data are representative of 3 experiments.
as §1
SV-HUC cells were grown to 80% confluence and transfected with 2 μg of pcDNA3 vector encoding either the TP-α or TP-β receptor isoforms. Transfection was performed in 6-well plates using the Fugene reagent (Roche) according to the manufacturer's instructions. After 72 hours post-transfection, cells were selected with 500 μg/ml G418 (Roche) and stable pools isolated after 14 days.

[8] = tested on: PTN mRNA; assay: PTN mRNA expression after receptor antagonist / agonist; assay type: cell-based
Excerpt: (§3) FIGS. 14A-F. TP-β regulation of pleiotrophin (PTN). […] (FIG. 14D) PTN mRNA reduction after PTXA2 treatment. The PTN mRNA levels are restored following the co-treatment with U46619. (FIG. 14E) shRNAi mediated knockdown of β-arrestin-2 reduced agonist dependent increase in PTN mRNA in HT-1376 cells (PTEN:wt), and UM-UC-3 cells (PTEN:minus). (FIG. 14F) Effect of U46619 on JNK1/2 and FOXO3a phosphorylation.

[9] = tested on: T24 cells; assay: Western blot of FAK and ERK phosphorylation in T24 cells; assay type: cell-based, human; settings: serum starved 12 hrs, treated 1 hr
Description: FIG. 6. Effect of TP receptor agonist (U46619) and antagonist (PTXA2) treatment on phosphorylation of FAK and ERK. T24 cells were serum starved for 12 hrs then treated with PTXA2 or U46619 for 1 hr. Tyrosine phosphorylation of FAK was assessed with western blot analysis on […] of cell lysate using anti-FAK pY397 (BD Bioscience) and pERK using a pERK specific antibody.
as §1

[10] = tested on: JNK1/2 and FOXO3a; assay: Effect of U46619 on JNK1/2 and FOXO3a; assay type: cell-based; settings: agonist stimulation
Excerpt: as §3

[11] = biological target: T2, TP-α (Homo sapiens, UniProt P21731); assay: Phosphorylation of ERK and FAK in SV-HUC cells transfected with TP-α or pcDNA3; assay type: cell-based
T2 construct: expressed in transfected cells
T2 sequence (P21731 1-343): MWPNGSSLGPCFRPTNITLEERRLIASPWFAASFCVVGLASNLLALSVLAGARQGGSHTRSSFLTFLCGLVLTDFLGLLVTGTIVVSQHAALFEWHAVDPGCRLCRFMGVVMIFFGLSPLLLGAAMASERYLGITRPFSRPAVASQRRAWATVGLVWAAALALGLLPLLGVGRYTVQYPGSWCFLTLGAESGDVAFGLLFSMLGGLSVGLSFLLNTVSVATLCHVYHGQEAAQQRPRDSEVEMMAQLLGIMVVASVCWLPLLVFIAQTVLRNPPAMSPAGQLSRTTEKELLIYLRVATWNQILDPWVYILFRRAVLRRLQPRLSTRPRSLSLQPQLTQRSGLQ
Description: as §2, §1
SV-HUC cells were grown to 80% confluence and transfected with 2 μg of pcDNA3 vector encoding either the TP-α or TP-β receptor isoforms. Transfection was performed in 6-well plates using the Fugene reagent (Roche) according to the manufacturer's instructions. […]

[12] = biological target: T3, TP-β and PTEN (Homo sapiens, UniProt P21731); assay: TP-β / PTEN co-immunoprecipitation and immunofluorescence; assay type: cell-based
T3 construct: endogenous in cells; host or cells: HT-1376 bladder cancer cells
T3 sequence (P21731 1-407 isoform P21731-2): as the sequence (P21731 1-407 isoform P21731-2) above
T3 sequence (P60484 2-403 partner limits assumed): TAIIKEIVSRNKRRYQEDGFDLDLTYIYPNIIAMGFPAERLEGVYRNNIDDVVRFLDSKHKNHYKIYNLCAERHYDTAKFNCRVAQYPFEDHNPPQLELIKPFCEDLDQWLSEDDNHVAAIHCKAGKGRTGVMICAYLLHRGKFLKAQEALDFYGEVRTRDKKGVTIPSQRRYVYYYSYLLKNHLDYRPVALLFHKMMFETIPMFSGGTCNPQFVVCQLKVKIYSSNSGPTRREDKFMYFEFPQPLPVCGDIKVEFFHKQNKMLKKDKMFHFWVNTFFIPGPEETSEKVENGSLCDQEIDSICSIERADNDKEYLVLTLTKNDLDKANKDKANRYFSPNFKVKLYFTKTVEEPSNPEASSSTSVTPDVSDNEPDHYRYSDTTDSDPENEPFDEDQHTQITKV
Description: FIGS. 13A-D. TP-β receptor localization and interaction with PTEN. (FIG. 13A) Co-immunoprecipitation followed by Western blot analysis. Immunoprecipitation with TP-α or TP-β specific antibodies was performed using extracts prepared from HT-1376 cells. […] Extracts prepared from solvent or agonist treated cells were immunoprecipitated with TP-β specific antibody. […] After TP-β stimulation with the U46619, PTEN translocated from the cytoplasm to the nuclear membrane. (FIG. 13D) PTEN lipid phosphatase activity was diminished in SV-HUC cells transfected with TP-β compared to those transfected with TP-α.

[13] = vehicle treated mice compared to GR32191 treated mice

O=C(O)CC/C=C\CC[C@@H]1[C@@H](N2CCCCC2)[C@@H](O)C[C@@H]1OCc1ccc(-c2ccccc2)cc1 [GR32191]
time of tumor free mice ([1]; 20 mg/kg daily by gavage): significantly (P<0.04) extended | tumor growth ([1]; 20 mg/kg daily by gavage, monitored over time): significantly inhibited | detection of palpable tumors / time of tumor onset ([1]; 20 mg/kg daily by gavage, started 24 hrs after cell injection): delayed | survival ([1]; GR32191 alone): prolonged survival | survival ([1]; GR32191 in combination with cisplatin): prolonged survival | apoptosis, TUNEL staining ([1]; GR32191 treated compared to vehicle treated mice, p<0.05): significant increase in apoptosis | microvessel density (MVD), CD31 staining ([1]; vehicle control compared to mice treated with GR32191): significantly higher (p<0.05) microvessel density | cell proliferation, PCNA staining [1, 13]: significantly increased (p<0.05) cell proliferation | percentage of undifferentiated tumors, H&E staining [1, 13]: significantly higher percentage (p<0.01) of undifferentiated tumors | safety in clinical studies [2]: shown to be safe | safety in clinical studies ([2]; listed as GR): excellent safety profile | tumor cell death [3]: synergistically increased tumor cell death | inhibition of cell migration and invasion ([4]; complementary studies, data not shown): 65% | sensitivity to cisplatin [5]: enhanced sensitivity to cisplatin

CCCCC[C@@H](O)/C=C/[C@H]1C[C@H]2C[C@@H]([C@@H]1C/C=C\CCCC(=O)O)C2(C)C [PTXA2]
phospho-ERK and phospho-FAK levels [6]: no effect | U46619-stimulated increase in pERK1/2 and pFAK ([7]; SV-HUC cells transfected with TP-β, antagonist added): blocked | basal levels of pFAK and pERK ([7]; TP-β transfected SV-HUC cells, data not shown): decreased the basal levels | PTN mRNA expression ([8]; incubation with receptor antagonist): reduced PTN mRNA expression | phospho-ERK and phospho-FAK levels [9]: reduction in the elevated basal levels; also recorded: significantly reduced

O=C(O)CCC/C=C\C[C@@H]1[C@H](CNNC(=O)Nc2ccccc2)[C@H]2CC[C@@H]1O2 [SQ29548]
tumor cell death [3]: synergistically increased tumor cell death | sensitivity to cisplatin [5]: enhanced sensitivity to cisplatin

CCCCC[C@H](O)/C=C/[C@@H]1[C@@H](C/C=C\CCCC(=O)O)[C@H]2CO[C@@H]1C2 [U46619]
JNK1/2 activation [10]: induced JNK1/2 activation | expression of the transcription factor FOXO3a [10]: reduced the expression | phosphorylation of FAK and ERK on agonist stimulation ([7]; SV-HUC cells transfected with TP-β): stimulated pERK1/2 and pFAK; also recorded: stimulated the phosphorylation of FAK and ERK | phosphorylation of FAK and ERK on agonist stimulation [11]: failed to stimulate | PTN expression ([8]; co-incubation of agonist with PTXA2): restored | localization of TP-β and PTEN proteins ([12]; immunofluorescence, in the presence of agonist): translocated to the nuclear membrane | association between TP-β and PTEN ([12]; immunoprecipitation with TP-β specific antibody, agonist versus solvent treated cells): Increased association between TP-β and PTEN | phospho-ERK and phospho-FAK levels [9]: significantly increased; also recorded: increased phosphorylation | cell migration ([4]; T-24 cells, transwell migration assay, 1 μM U46619 for 12 hours): increase in migration

Source: US8551489B2, “Methods for the treatment of cancers” (MUSC Foundation for Research Development, priority 2008, dated 2013)
